Experimental data: US9440952B2, “Compounds inhibiting leucine-rich repeat kinase enzyme activity” (Merck Sharp & Dohme Corp., priority 2013, dated 2016)

target: T1, LRRK2(G2019S mutation, GST-LRRK2(amino acids 970-2527)) (Homo sapiens, UniProt Q5S007, G2019S); assay: LRRK2 Km ATP LanthaScreen Assay; assay type: biochemical; details: Km ATP LanthaScreen Assay; LRRK2 G2019S; mean IC50 values; read-out: LRRK2 IC50
T1 construct: GST-LRRK2(amino acids 970-2527); GST (N); purchased Life Technologies Corporation
T1 sequence (Q5S007 970-2527 G2019S): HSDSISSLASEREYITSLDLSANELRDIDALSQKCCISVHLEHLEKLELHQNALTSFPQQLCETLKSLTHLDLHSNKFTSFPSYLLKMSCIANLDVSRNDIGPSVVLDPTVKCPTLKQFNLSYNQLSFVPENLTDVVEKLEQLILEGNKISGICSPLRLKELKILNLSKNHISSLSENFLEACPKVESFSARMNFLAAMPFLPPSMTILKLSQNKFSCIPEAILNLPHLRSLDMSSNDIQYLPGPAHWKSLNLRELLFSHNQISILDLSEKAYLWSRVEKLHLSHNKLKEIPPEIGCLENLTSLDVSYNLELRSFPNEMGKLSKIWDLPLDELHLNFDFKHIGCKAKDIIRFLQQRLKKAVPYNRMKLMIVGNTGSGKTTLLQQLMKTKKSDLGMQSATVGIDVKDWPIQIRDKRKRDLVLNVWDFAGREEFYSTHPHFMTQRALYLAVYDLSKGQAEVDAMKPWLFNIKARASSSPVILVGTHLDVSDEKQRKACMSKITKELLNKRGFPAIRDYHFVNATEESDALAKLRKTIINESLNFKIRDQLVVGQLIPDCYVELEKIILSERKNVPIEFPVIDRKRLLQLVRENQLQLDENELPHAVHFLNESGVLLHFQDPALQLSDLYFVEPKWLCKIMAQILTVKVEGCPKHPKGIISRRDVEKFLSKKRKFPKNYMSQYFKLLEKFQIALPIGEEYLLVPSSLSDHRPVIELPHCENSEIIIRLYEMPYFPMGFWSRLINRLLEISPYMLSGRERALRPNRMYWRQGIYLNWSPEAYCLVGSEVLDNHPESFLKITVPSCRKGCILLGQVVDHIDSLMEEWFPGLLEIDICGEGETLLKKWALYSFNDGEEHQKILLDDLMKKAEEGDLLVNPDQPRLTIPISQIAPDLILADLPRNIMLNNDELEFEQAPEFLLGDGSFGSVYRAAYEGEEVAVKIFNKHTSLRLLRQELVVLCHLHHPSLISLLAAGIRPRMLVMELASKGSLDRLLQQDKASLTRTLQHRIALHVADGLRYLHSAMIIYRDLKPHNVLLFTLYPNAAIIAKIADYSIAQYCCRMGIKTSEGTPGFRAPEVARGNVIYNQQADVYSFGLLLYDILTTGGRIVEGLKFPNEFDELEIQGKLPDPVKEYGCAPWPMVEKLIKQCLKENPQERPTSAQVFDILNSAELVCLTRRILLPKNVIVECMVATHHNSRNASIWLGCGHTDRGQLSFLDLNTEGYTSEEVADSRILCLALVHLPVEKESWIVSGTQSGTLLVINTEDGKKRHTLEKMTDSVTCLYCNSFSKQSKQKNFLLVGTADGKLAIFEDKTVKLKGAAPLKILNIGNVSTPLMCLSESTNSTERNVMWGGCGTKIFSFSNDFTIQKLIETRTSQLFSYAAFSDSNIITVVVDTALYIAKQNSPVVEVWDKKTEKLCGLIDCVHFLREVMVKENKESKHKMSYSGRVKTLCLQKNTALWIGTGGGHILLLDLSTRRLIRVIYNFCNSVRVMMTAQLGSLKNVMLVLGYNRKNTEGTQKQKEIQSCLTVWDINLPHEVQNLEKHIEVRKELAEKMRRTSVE
Procedure: Unless otherwise noted, all LRRK2 IC50 data presented in tables refers to the LRRK2 Km ATP LanthaScreen™ Assay that is described in the Biological Assay section.
The data presented for the 5 mM and Km ATP LanthaScreen™ Assay represents mean IC50 values based on several test results and may have reasonable. deviations depending on the specific conditions and reagents used. Reagents for the LRRK2 5 mM and Km ATP LanthaScreen™ Assay were purchased from Life Technologies Corporation.
Results are analysed using Assay Data Analyzer.

With `c1ccc2c(-c3ccnc(N4CCCCCC4)c3)n[nH]c2c1` [Example 2] as the compound, how does the IC50 read?
Its IC50 is 76 nM.

How did the IC50 turn out when `COCCN(C)c1cc(-c2n[nH]c3ccccc23)ccn1` [Example 3] was run?
The IC50 was 48 nM.

Which IC50 does the source give for `COCCNc1cc(-c2n[nH]c3ccccc23)ccn1` [Example 4] here?
Its IC50 is 46 nM.

How did the IC50 turn out when `c1ccc2c(-c3ccnc(N4CCCC4)c3)n[nH]c2c1` [Example 5] was run?
Its IC50 is 17 nM.

With `c1ccc2c(-c3ccnc(N4CCCCC4)c3)n[nH]c2c1` [Example 6] as the compound, how does the IC50 read?
Its IC50 is 16 nM.

Which IC50 does the source give for `c1ccc2c(c1)CN(c1cc(-c3n[nH]c4ccccc34)ccn1)C2` [Example 7] here?
Its IC50 is 87 nM.

For `CN1CCN(c2cc(-c3n[nH]c4ccccc34)ccn2)CC1` [Example 8], which IC50 is on record?
Its IC50 is 42 nM.

With `OCCNc1cc(-c2n[nH]c3ccccc23)ccn1` [Example 9] as the compound, how does the IC50 read?
The IC50 was 54 nM.

How did the IC50 turn out when `OC1CCN(c2cc(-c3n[nH]c4ccccc34)ccn2)CC1` [Example 10] was run?
Its IC50 is 24 nM.

For `c1ccc(N2CCN(c3cc(-c4n[nH]c5ccccc45)ccn3)CC2)cc1` [Example 11], which IC50 is on record?
The IC50 was 49 nM.

How did the IC50 turn out when `c1ccc2c(-c3ccnc(N4CCSCC4)c3)n[nH]c2c1` [Example 12] was run?
The IC50 was 46 nM.

With `c1ccc(N2CCN(c3cc(-c4n[nH]c5ccccc45)ccn3)CC2)nc1` [Example 13] as the compound, how does the IC50 read?
The IC50 was 22 nM.

With `N#CC1(c2ccccc2)CCN(c2cc(-c3n[nH]c4ccccc34)ccn2)CC1` [Example 14] as the compound, how does the IC50 read?
The IC50 was 67 nM.

`c1ccc2c(-c3ccnc(N4CCC5(CC4)OCCO5)c3)n[nH]c2c1` [Example 15, 8-[4-(1H-indazol-3-yl)pyridin-2-yl]-1,4-dioxa-8-azaspiro[4.5]decane] was tested. Which IC50 did it give?
The IC50 was 36 nM.

With `c1ccc2c(-c3ccnc(N4CCC(c5ccncc5)CC4)c3)n[nH]c2c1` [Example 16] as the compound, how does the IC50 read?
The IC50 was 186 nM.

`N#CC1(c2ccccn2)CCN(c2cc(-c3n[nH]c4ccccc34)ccn2)CC1` [Example 17] was tested. Which IC50 did it give?
The IC50 was 16 nM.

`CS(=O)(=O)N1CCN(c2cc(-c3n[nH]c4ccccc34)ccn2)CC1` [Example 18] was tested. Which IC50 did it give?
The IC50 was 17 nM.

For `c1ccc2c(-c3ccnc(N4CCN(Cc5ccncc5)CC4)c3)n[nH]c2c1` [Example 19], which IC50 is on record?
Its IC50 is 18 nM.

`C1=CC(c2noc(C3CCN(c4cc(-c5n[nH]c6ccccc56)ccn4)CC3)n2)=CCC1` [Example 20] was tested. Which IC50 did it give?
The IC50 was 27 nM.

`FC1CCCN(c2cc(-c3n[nH]c4ccccc34)ccn2)C1` (stereo not drawn) [Example 21] was tested. Which IC50 did it give?
The IC50 was 22 nM.

How did the IC50 turn out when `c1ccc(C2CCN(c3cc(-c4n[nH]c5ccccc45)ccn3)CC2)nc1` [Example 22] was run?
Its IC50 is 20 nM.

For `OC1(c2ccccn2)CCN(c2cc(-c3n[nH]c4ccccc34)ccn2)CC1` [Example 23], which IC50 is on record?
The IC50 was 20 nM.

How did the IC50 turn out when `c1cncc(N2CCN(c3cc(-c4n[nH]c5ccccc45)ccn3)CC2)c1` [Example 24] was run?
Its IC50 is 18 nM.

Which IC50 does the source give for `OC1(c2ccncc2)CCN(c2cc(-c3n[nH]c4ccccc34)ccn2)CC1` [Example 25] here?
Its IC50 is 21 nM.

How did the IC50 turn out when `OC1(c2cccnc2)CCN(c2cc(-c3n[nH]c4ccccc34)ccn2)CC1` [Example 26] was run?
Its IC50 is 19 nM.

`c1ccc2c(-c3ccnc(N4CCC(N5CCOCC5)CC4)c3)n[nH]c2c1` [Example 27] was tested. Which IC50 did it give?
Its IC50 is 32 nM.

How did the IC50 turn out when `FC1(F)CCN(c2cc(-c3n[nH]c4ccccc34)ccn2)CC1` [Example 28] was run?
Its IC50 is 57 nM.

For `c1ccc2c(-c3ccnc(N4CCC(N5CCCC5)CC4)c3)n[nH]c2c1` [Example 29], which IC50 is on record?
Its IC50 is 45 nM.

same assay, conditions: Km ATP LanthaScreen; mean IC50 of several tests; read-out: LRRK2 IC50

For `COc1ccc(-c2ccc3[nH]nc(-c4ccnc(N5CCOCC5)c4)c3c2)cn1` [Ex 329], which IC50 is on record?
The IC50 was 14 nM.

`COc1ncnc(C)c1-c1ccc2[nH]nc(-c3ccnc(N4CCOCC4)c3)c2c1` [Ex 331] was tested. Which IC50 did it give?
Its IC50 is 59 nM.

Which IC50 does the source give for `Cn1cnnc1-c1ccc2[nH]nc(-c3ccnc(N4CCOCC4)c3)c2c1` [Ex 341] here?
Its IC50 is 1.4 nM.

For `Cc1nnc(-c2ccc3[nH]nc(-c4ccnc(N5CCOCC5)c4)c3c2)o1` [Ex 342], which IC50 is on record?
Its IC50 is 0.61 nM.

Which IC50 does the source give for `Cn1cc(-c2cc3c(-c4ccnc(N5CCOCC5)c4)n[nH]c3cc2F)cn1` [Ex 352] here?
The IC50 was 12 nM.

Which IC50 does the source give for `Cn1cc(-c2cc3c(-c4ccnc(N5CC(F)C5)c4)n[nH]c3cc2F)cn1` [Ex 353] here?
Its IC50 is 4.6 nM.

How did the IC50 turn out when `CCOc1nccnc1-c1ccc2[nH]nc(-c3ccnc(N4CCOCC4)c3)c2c1` [Ex 390] was run?
Its IC50 is 1.6 nM.

For `c1ccc2c(-c3ccnc(N4CCOCC4)c3)n[nH]c2c1` [Example 1], which IC50 is on record?
The IC50 was 16 nM.
